This note sets out measurements from patent publication US5393923A, “3,5-di-t-butyl-4-hydroxyphenylmethylhydroxylamines and their derivatives, pharmaceutical compositions, and methods of use therefor” (Warner-Lambert Company, priority 1993, dated 1995).

Molecules are shown by their SMILES. Structures can show the parent of a compound that is named as a salt. A value given as a limit tells only on which side of the number the result lay.

Usually IC50 stands for the concentration that inhibits the measured activity by half. A low value points to higher potency.

For data set [1], the system named is carrageenan-induced rat foot paw edema. In words: Carrageenan-induced rat foot paw edema-2 (CFE-2) assay. Type of data set: in vivo. Conditions: dosed 1 hour before carrageenan, edema measured 5 hours after, read-out: CFE ID40. As for the experimental part:
CARRAGEENAN-INDUCED RAT FOOT PAW EDEMA-2 (CFE-2) ASSAY: PROTOCOL
Carrageenan solution (1% w/v) is prepared by dissolving 100 mg carrageenan (Marine Colloidal Div., Springfield, N.J.) in 10 mL of sterile saline (0.9%) solution (Travenol). The solution is vortexed for 30 to 45 minutes. Animals are dosed with compound 1 hour before carrageenan challenge. Foot paw edema is induced by injecting 0.10 mL of the 1% carrageenan subcutaneously into the plantar portion of the right hind paw of each rat under light anesthesia. Initial foot paw volume is measured immediately following carrageenan challenge using mercury plethysmography (Buxco Electronics). Edema is measured 5 hours after carrageenan. The difference between the 5-hour and the initial paw volume is expressed as delta edema. The delta edema for each test group of animals is used to calculate the percent inhibition of edema achieved by the compound at the test dose compared with the vehicle control group. The ID40 (the dose at which swelling is inhibited by 40%) is calculated by probit analysis for the dose at which 40% inhibition occurs.
Background: The carrageenan paw model is a standard test of acute inflammation.

The next data set concerns the target T1, 5-lipoxygenase (Rattus norvegicus, UniProt P12527).
T1 construct: host or cells: RBL-1
T1 sequence (P12527 1-673): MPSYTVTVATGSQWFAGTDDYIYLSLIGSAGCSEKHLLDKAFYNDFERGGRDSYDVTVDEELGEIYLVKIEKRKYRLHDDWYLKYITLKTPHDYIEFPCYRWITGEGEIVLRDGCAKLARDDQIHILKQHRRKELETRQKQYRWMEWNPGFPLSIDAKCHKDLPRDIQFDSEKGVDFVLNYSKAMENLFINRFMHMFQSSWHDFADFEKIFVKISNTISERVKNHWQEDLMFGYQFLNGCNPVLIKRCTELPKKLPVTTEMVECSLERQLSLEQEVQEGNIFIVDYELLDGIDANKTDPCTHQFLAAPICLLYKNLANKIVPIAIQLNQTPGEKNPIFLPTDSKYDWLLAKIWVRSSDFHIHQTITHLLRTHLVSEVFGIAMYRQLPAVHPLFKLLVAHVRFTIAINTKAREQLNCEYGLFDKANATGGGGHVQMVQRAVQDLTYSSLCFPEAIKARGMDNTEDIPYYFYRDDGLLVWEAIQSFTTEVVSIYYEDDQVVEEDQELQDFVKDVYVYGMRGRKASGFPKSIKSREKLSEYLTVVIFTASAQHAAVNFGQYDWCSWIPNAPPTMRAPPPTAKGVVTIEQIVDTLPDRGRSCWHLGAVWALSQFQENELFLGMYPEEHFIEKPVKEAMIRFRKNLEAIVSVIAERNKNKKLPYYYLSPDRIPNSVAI
In words: ARBL whole cell 5-lipoxygenase assay (LTB4 formation, RBL-1 cells). Type of data set: cell-based. The settings on record: 50% inhibition of LTB4 formation. The protocol:
(§1) ARBL/ARBC WHOLE CELL 5-LIPOXYGENASE AND CYCLOOXYGENASE ASSAYS The rat basophilic leukemia cell line (RBL-1) was obtained from the American Type Culture Collection (Rockville, Md.). Radioimmunoassay (RIA) kits of LTB4 and PGF2α were obtained from Amersham (Arlington Heights, Ill.) and Seragen (Boston, Mass.), respectively. RBL-1 cells are grown in suspension culture in Eagle's minimum essential medium supplemented with 12% fetal bovine serum at 37° C. in an incubator supplied with air-5% carbon dioxide. Cells are harvested by centrifugation. They are washed with cold phosphate-buffered saline, pH 7.4 (PBS; NaCl, 7.1 g; Na2 HPO4, 1.15 g; KH2 PO4, 0.2 g; and KCl, 0.2 g/L). Cells are finally suspended in PBS containing 1.0 mM calcium at a density of 2×10^6 cells/mL. Cells are incubated […] test agent (in DMSO) (1% DMSO is without effect on arachidonic acid metabolism) for 10 minutes at room temperature. Calcium ionophore A23187 (5 μM) is added and cells are incubated for 7 minutes at 37° C. The reaction is stopped by chilling the tubes on ice for 10 minutes. Cells are separated by centrifugation and the supernatant is stored at -20° C. Aliquots (100 μL) are analyzed for LTB4 and PGF2α using radioimmunoassay kits as provided by the supplier. Table 1 contains biochemical data for compounds of Formula I obtained from this whole cell assay as amount of inhibition at given μM or IC50 s which are calculated as the concentration of a test compound in micromoles (μM) causing 50% inhibition of LTB4 or PGF2αformation.

Another data set addresses T2, cyclooxygenase (Rattus norvegicus, UniProt Q63921).
T2 construct: host or cells: RBL-1
T2 sequence (Q63921 27-602): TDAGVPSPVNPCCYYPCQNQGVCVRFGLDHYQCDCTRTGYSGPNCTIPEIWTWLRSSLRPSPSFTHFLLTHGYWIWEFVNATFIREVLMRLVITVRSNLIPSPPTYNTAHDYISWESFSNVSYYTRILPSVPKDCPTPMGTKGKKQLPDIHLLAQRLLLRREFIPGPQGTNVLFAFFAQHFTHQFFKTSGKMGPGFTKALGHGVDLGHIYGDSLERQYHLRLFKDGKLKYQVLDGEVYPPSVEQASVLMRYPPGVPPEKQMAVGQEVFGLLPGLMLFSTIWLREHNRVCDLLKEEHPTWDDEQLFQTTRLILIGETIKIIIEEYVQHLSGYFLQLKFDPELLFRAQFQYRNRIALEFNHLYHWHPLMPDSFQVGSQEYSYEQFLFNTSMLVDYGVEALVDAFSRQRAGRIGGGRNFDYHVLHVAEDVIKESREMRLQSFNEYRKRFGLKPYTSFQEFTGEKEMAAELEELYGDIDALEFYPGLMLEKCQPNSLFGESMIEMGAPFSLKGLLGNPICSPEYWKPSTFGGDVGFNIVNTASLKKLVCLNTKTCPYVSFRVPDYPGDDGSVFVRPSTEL
The data set can be described thus: ARBC whole cell cyclooxygenase assay (PGF2α formation, RBL-1 cells). Conditions: for IC50: 50% inhibition of PGF2α formation. The data set is classed as cell-based. As for the experimental part:
as §1

Another data set has as its system gastric ulcers. In words: Gastric ulcerogenicity (UD). The data set is classed as in vivo, Male outbred Wistar rats. The settings on record: @ 200 mg/kg; oral, fasted rats, 6 hours; class symbol. As for the experimental part: GASTRIC ULCEROGENICITY (UD): PROTOCOL
Male outbred Wistar rats (100 to 250 g) are fasted for 24 hours. After fasting, test compounds are administered orally (in 2 mL/kg of 0.5% hydroxypropyl methylcellulose) and the rats are denied access to food and water for 6 more hours. The rats are then sacrificed with CO2 so that the stomachs can be removed, opened along the greater curvature, and evaluated for the presence of gastric ulcers. Results are expressed as the percent of rats with gastric ulcers at a given dose or as the UD50 (the dose which causes ulcers in 50% of the rats).

The test system of data set [2] is Mycobacterium-induced rat footpad edema. In words: Mycobacterium-induced rat footpad edema assay (MFE). The data set is classed as in vivo. The settings on record: dosed 1 hour before Mycobacterium and on Days 1 and 2, swelling at 72 hours, read-out: MFE ID40. The protocol:
MYCOBACTERIUM-INDUCED RAT FOOTPAD EDEMA ASSAY (MFE): PROTOCOL
Mycobacterium butyricum (5 mg/mL) is suspended in paraffin oil by sonication for 10 minutes in an ice bath. Footpad edema is induced on Day 0 by injecting 0.1 mL of the Mycobacterium mixture into the left hindpaw of lightly anesthetized rats. Swelling in the injected hindpaw is determined by mercury plethysmography 72 hours after injection. Groups of rats are treated with test compounds (suspended in 0.5% hydroxypropyl methylcellulose with 0.2% Tween-80) or vehicle 1 hour before Mycobacterium injection and on Days 1 and 2. Inhibition of swelling is determined by comparing the change in hindpaw volume in compound- and vehicle-treated rats. An ID40 (the dose at which swelling is inhibited by 40%) is calculated by probit analysis.

Take `CN(O)C(c1ccccc1)c1cc(C(C)(C)C)c(O)c(C(C)(C)C)c1` (centres unmarked) [Example 19, 2,6-Bis(1,1-dimethylethyl)-4-[(hydroxymethylamino)phenylmethyl]phenol, monohydrochloride]: the ED40 in data set [1] was above 30 mg/kg. Further, the IC50 is 1.2 µM against 5-lipoxygenase and 4.3 µM against cyclooxygenase.

For the compound `CC(C)(C)c1cc(C(NO)c2ccccc2)cc(C(C)(C)C)c1O` (centres unmarked) [Example 20], the UD50 result with gastric ulcers is “N (N = less than 40% inhibition at given concentration)”. Also, the results for the ED40 in data set [2] and in data set [1] were 3.8 mg/kg and 13.2 mg/kg, respectively. In addition, the IC50 at 5-lipoxygenase was found to be 2.3 µM; at cyclooxygenase it was 4.1 µM.

Take `CC(=O)N(O)C(c1ccccc1)c1cc(C(C)(C)C)c(O)c(C(C)(C)C)c1` (centres unmarked) [Example 22, N-[[3,5-Bis(1,1-dimethylethyl)-4-hydroxyphenyl]-phenylmethyl]-N-hydroxyacetamide]: in data set [1], the ED40 was above 30 mg/kg. Moreover, at 5-lipoxygenase, 4.8 µM corresponded to half-maximal inhibition (IC50). Moreover, the “ARBC inhibition of PGF2α at given concentration” value on cyclooxygenase (@ 16 μM, A23187) is 42/75.
